Assay results published in patent US8987456B2, “3-pyridyl carboxamide-containing spleen tyrosine kinase (SYK) inhibitors” (Merck Sharp & Dohme Corp., priority 2011, dated 2015).
pIC50: −log10 of the molar value. Like-named read-outs stand apart in the source and are kept apart here.

Columns and labels:
[1] = molecular target: T1, recombinant human GST-SYK (Homo sapiens, UniProt P43405); assay: Homogeneous Time-Resolved Fluorescence (HTRF) assay for the recombinant human Syk enzyme; assay type: biochemical; settings: 5 pM GST-SYK, 25 μM ATP, 10-dose titration
T1 construct: purchased Carna Biosciences 08-176
Procedure: Biological Assay Homogeneous Time-Resolved Fluorescence (HTRF) Assay for the Recombinant Human Syk Enzyme
A recombinant GST-hSYK fusion protein was used to measure potency of compounds to inhibit human Syk activity. […] Final volume of the reaction was 10 μL. Phosphorylation of the peptide was allowed to proceed for 45′ at room temperature. To quench the reaction and detect the phosphorylated product, 2 nM of a Europium-anti-phosphotyrosine antibody (Perkin Elmer #AD0161) and 70 nM SA-APC (Perkin-Elmer #CR130-100) were added together in 15 mM Tris pH 7.5, 40 mM EDTA, 0.01% tween 20. Final volume of the quenching solution was 10 μL. The resulting HTRF signal was measured after 30 minutes on an EnVision (Perkin-Elmer) reader using a time-resolved fluorescence protocol.

[2] = test system: allergic rhinitis; settings: phase II clinical trial; cited from earlier work
[3] = test system: allergic rhinitis; settings: dosed intranasally, phase I/II study; cited from earlier work

| SMILES | pIC50 ([1]; read-out: IC50) | pIC50 ([1]; read-out: rhSYK Activity) | further results |
| --- | --- | --- | --- |
| Cc1nc(Nc2cc(N[C@@H]3CCCC[C@@H]3N)ncc2C(N)=O)ccc1F [Example 1.7, 6-{[(1R,2S)-2-aminocyclohexyl]amino}-4-[(5-fluoro-6-methylpyridin-2-yl)amino]pyridine-3-carboxamide] | – | 7.00 to 8.00 | – |
| Oc1cccc(Nc2ncc(F)c(Nc3cccc(O)c3)n2)c1 [Example R112] | – | – | efficacy versus placebo [2]: lack of efficacy versus placebo; PGD2 [3]: statistically significant decrease; clinical safety [3]: safe across a range of indicators |
| NC(=O)c1cnc(N[C@@H]2CCCC[C@@H]2N)cc1Nc1ccc2ccccc2n1 [Example 1.6, 6-{[(1R,2S)-2-aminocyclohexyl]amino}-4-(quinolin-2-ylamino)pyridine-3-carboxamide] | 8.24 | > 8.00 | – |
| Cc1cccc(Nc2cc(N[C@@H]3CCCC[C@@H]3N)ncc2C(N)=O)n1 [Example 1.2, 6-{[(1R,2S)-2-aminocyclohexyl]amino}-4-[(6-methylpyridin-2-yl)amino]pyridine-3-carboxamide] | 8.35 | 7.00 to 8.00 | – |
| NC(=O)c1cnc(N[C@@H]2CCCC[C@@H]2N)cc1Nc1cccc(-n2nccn2)n1 [Example 1.4, 6-{[(1R,2S)-2-aminocyclohexyl]amino}-4-{[6-(2H-1,2,3-triazol-2-yl)pyridin-2-yl]amino}pyridine-3-carboxamide] | – | > 8.00 | – |
| C[C@H](N)CNc1cc(Nc2cc(-c3cnn(C)c3)cc(-c3cnn(C)c3)n2)c(C(N)=O)cn1 [Example 1.8, 6-{[(2S)-2-aminopropyl]amino}-4-{[4,6-bis(1-methyl-1H-pyrazol-4-yl)pyridin-2-yl]amino}pyridine-3-carboxamide] | – | > 8.00 | – |
| Cc1cccc(Nc2cc(NCCN)ncc2C(N)=O)n1 [Example 1.3, 6-[(2-aminoethyl)amino]-4-[(6-methylpyridin-2-yl)amino]pyridine-3-carboxamide] | 6.77 | 6.00 to 7.00 | – |
| NC(=O)c1cnc(N[C@@H]2CCCC[C@@H]2N)cc1Nc1cccc(C(F)(F)F)n1 [Example 1.1, 6-{[(1R,2S)-2-aminocyclohexyl]amino}-4-{[6-(trifluoromethyl)pyridin-2-yl]amino}pyridine-3-carboxamide] | 8.46 | > 8.00 | – |
| Cc1nc(Nc2cc(NC[C@H](C)N)ncc2C(N)=O)ccc1-c1cnn(C)c1 [Example 1.9, 6-{[(2S)-2-aminopropyl]amino}-4-{[6-methyl-5-(1-methyl-1H-pyrazol-4-yl)pyridin-2-yl]amino}pyridine-3-carboxamide] | – | > 8.00 | – |
| Cc1cc(C)nc(Nc2cc(NCC3(N)CCOCC3)ncc2C(N)=O)c1 [Example 2.5] | – | 5.00 to 6.00 | – |

The next lines start with results.

| pIC50 ([1]; read-out: IC50) | pIC50 ([1]; read-out: rhSYK Activity) | SMILES | further results |
| --- | --- | --- | --- |
| 7.18 | 7.00 to 8.00 | Cc1nc(Nc2cc(NCCN)ncc2C(N)=O)ccc1Br [Example 2.13, 6-[(2-aminoethyl)amino]-4-[(5-bromo-6-methylpyridin-2-yl)amino]pyridine-3-carboxamide] | – |
| – | 5.00 to 6.00 | Cc1cc(C)nc(Nc2cc(N[C@@H]3COC[C@H]3N)ncc2C(N)=O)c1 (relative stereo) [Example 2.4, rel-6-{[(3S,4S)-4-aminotetrahydrofuran-3-yl]amino}-4-[(4,6-dimethylpyridin-2-yl)amino]pyridine-3-carboxamide] | – |
| – | 7.00 to 8.00 | CCCC(N)CNc1cc(Nc2cccc(C)n2)c(C(N)=O)cn1 (racemic) [Example 2.11, 6-[(2-aminopentyl)amino]-4-[(6-methylpyridin-2-yl)amino]pyridine-3-carboxamide] | – |
| – | 6.00 to 7.00 | Cc1cccc(Nc2cc(NCC(N)C3CC3)ncc2C(N)=O)n1 (racemic) [Example 2.12, 6-[(2-amino-2-cyclopropylethyl)amino]-4-[(6-methylpyridin-2-yl)amino]pyridine-3-carboxamide] | – |
| – | 5.00 to 6.00 | Cc1cc(C)nc(Nc2cc(NCC3(N)CCOC3)ncc2C(N)=O)c1 (racemic) [Example 2.6, 6-{[(3-aminotetrahydrofuran-3-yl)methyl]amino}-4-[(4,6-dimethylpyridin-2-yl)amino]pyridine-3-carboxamide] | – |
| – | 7.00 to 8.00 | Cc1cc(C)nc(Nc2cc(NCCN)ncc2C(N)=O)c1 [Example 2.2, 6-[(2-aminoethyl)amino]-4-[(4,6-dimethylpyridin-2-yl)amino]pyridine-3-carboxamide] | – |
| – | 6.00 to 7.00 | Cc1cccc(Nc2cc(N[C@@H]3CCCC[C@H]3N)ncc2C(N)=O)n1 (relative stereo) [Example 2.8, rel-6-{[(1R,2R)-2-aminocyclohexyl]amino}-4-[(6-methylpyridin-2-yl)amino]pyridine-3-carboxamide] | – |
| 5.46 | 5.00 to 6.00 | Cc1cc(C)nc(Nc2cc(NCC(N)C(F)(F)F)ncc2C(N)=O)c1 (racemic) [Example 2.3, 6-[(2-amino-3,3,3-trifluoropropyl)amino]-4-[(4,6-dimethylpyridin-2-yl)amino]pyridine-3-carboxamide] | – |
| – | 6.00 to 7.00 | CCC(N)CNc1cc(Nc2cccc(C)n2)c(C(N)=O)cn1 (centres unmarked) [Example 2.1, 6-[(2-aminobutyl)amino]-4-[(6-methylpyridin-2-yl)amino]pyridine-3-carboxamide] | – |
| – | 6.00 to 7.00 | CCC(C)(N)CNc1cc(Nc2cccc(C)n2)c(C(N)=O)cn1 (racemic) [Example 2.9, 6-[(2-amino-2-methylbutyl)amino]-4-[(6-methylpyridin-2-yl)amino]pyridine-3-carboxamide] | – |
| 5.49 | 5.00 to 6.00 | Cc1cc(C)nc(Nc2cc(NC(C)CN)ncc2C(N)=O)c1 (racemic) [Example 2.10, 6-[(2-amino-1-methylethyl)amino]-4-[(4,6-dimethylpyridin-2-yl)amino]pyridine-3-carboxamide] | – |
| – | 7.00 to 8.00 | Cc1cc(C)nc(Nc2cc(NC[C@H](C)N)ncc2C(N)=O)c1 [Example 3.1, 6-{[(2S)-2-aminopropyl]amino}-4-[(4,6-dimethylpyridin-2-yl)amino]pyridine-3-carboxamide] | – |
| – | 6.00 to 7.00 | COC[C@H](N)CNc1cc(Nc2cccc(C)n2)c(C(N)=O)cn1 [Example 2.7, 6-{[(2R)-2-amino-3-methoxypropyl]amino}-4-[(6-methylpyridin-2-yl)amino]pyridine-3-carboxamide] | – |
| 6.29 | 6.00 to 7.00 | Cc1cc(C)nc(Nc2cc(N[C@@H]3[C@H](N)CCCC3(F)F)ncc2C(N)=O)c1 [Example 3.2, 6-{[(1R,6R)-6-amino-2,2-difluorocyclohexyl]amino}-4-[(4,6-dimethylpyridin-2-yl)amino]pyridine-3-carboxamide] | – |
| – | 7.00 to 8.00 | Cc1cc(C)nc(Nc2cc(N[C@H]3[C@@H](N)CCCC3(F)F)ncc2C(N)=O)c1 [Example 3.3, 6-{[(1S,6S)-6-amino-2,2-difluorocyclohexyl]amino}-4-[(4,6-dimethylpyridin-2-yl)amino]pyridine-3-carboxamide] | – |
